Measured values: ChEMBL document CHEMBL4616634, “4β-Hydroxywithanolide E from Goldenberry (Whole Fruits of Physalis peruviana L.) as a Promising Agent against Chronic Obstructive Pulmonary Disease” (J Nat Prod, 2020)
The source made the active and inactive calls.

Tests used:
Assay type in all cases: functional, organism-based
Mus musculus [1] = assay: Antiinflammatory activity in C57BL/6 mouse model of CS-induced pulmonary injury assessed as reduction in thickening of the alveolar septa in lungs at 1 mg/kg, ip for 5 days by hematoxylin and eosin staining based fluorescence microscopic analysis
Mus musculus [2] = assay: Antiinflammatory activity in C57BL/6 mouse model of CS-induced pulmonary injury assessed as reduction in hyperplasia of pneumo-cytes in lungs at 1 mg/kg, […] by hematoxylin and eosin staining based fluorescence microscopic analysis
Mus musculus [3] = assay: Antiinflammatory activity in C57BL/6 mouse model of CS-induced pulmonary injury assessed as reduction in distinct infiltration of leukocytes in lungs at 1 mg/kg, ip for 5 days by hematoxylin and eosin staining based fluorescence microscopic analysis
Mus musculus [4] = assay: Antiinflammatory activity in C57BL/6 mouse model of CS-induced pulmonary injury assessed as reduction in goblet cell hyperplasia in peribronchial in lungs at 1 mg/kg, ip for 5 days by hematoxylin and eosin staining based fluorescence microscopic analysis
Mus musculus [5] = assay: Antiinflammatory activity in C57BL/6 mouse model of CS-induced pulmonary injury assessed as reduction in goblet cell hyperplasia in perivascular areas in lungs at 1 mg/kg, ip for 5 days by hematoxylin and eosin staining based fluorescence microscopic analysis
Mus musculus [6] = assay: Antiinflammatory activity in C57BL/6 mouse model of CS-induced pulmonary injury assessed as reduction in 8-oxo-dG in lungs at 1 mg/kg, ip for 5 days by ELISA
Mus musculus [7] = assay: Antiinflammatory activity in C57BL/6 mouse model of CS-induced pulmonary injury assessed as reduction in thickening of the alveolar septa in lungs at 50 mg/kg, ip for 5 days by hematoxylin and eosin staining based fluorescence microscopic analysis
Mus musculus [8] = assay: Antiinflammatory activity in C57BL/6 mouse model of CS-induced pulmonary injury assessed as reduction in hyperplasia of pneumo-cytes in lungs at 50 mg/kg, ip for 5 days by hematoxylin and eosin staining based fluorescence microscopic analysis
Mus musculus [9] = assay: Antiinflammatory activity in C57BL/6 mouse model of CS-induced pulmonary injury assessed as reduction in distinct infiltration of leukocytes in lungs at 50 mg/kg, ip for 5 days by hematoxylin and eosin staining based fluorescence microscopic analysis
Mus musculus [10] = assay: Antiinflammatory activity in C57BL/6 mouse model of CS-induced pulmonary injury assessed as reduction in goblet cell hyperplasia in peribronchial in lungs at 50 mg/kg, ip for 5 days by hematoxylin and eosin staining based fluorescence microscopic analysis
Mus musculus [11] = assay: Antiinflammatory activity in C57BL/6 mouse model of CS-induced pulmonary injury assessed as reduction in goblet cell hyperplasia in perivascular areas in lungs at 50 mg/kg, ip for 5 days by hematoxylin and eosin staining based fluorescence microscopic analysis
Mus musculus [12] = assay: Antiinflammatory activity in C57BL/6 mouse model of CS-induced pulmonary injury assessed as reduction in 8-oxo-dG in lungs at 50 mg/kg, ip for 5 days by ELISA

Measured: Activity

C[C@@H]1C[C@H]2[C@@H]3CCC4=CC(=O)C=C[C@]4(C)[C@@]3(F)[C@@H](O)C[C@]2(C)[C@@]1(O)C(=O)CO
active: Mus musculus [1] | Mus musculus [2] | Mus musculus [3] | Mus musculus [4] | Mus musculus [5] | Mus musculus [6]

CC(C)(C)c1cc(O)ccc1O
active: Mus musculus [7] | Mus musculus [8] | Mus musculus [9] | Mus musculus [10] | Mus musculus [11] | Mus musculus [12]
